PubChem BioAssay AID1259407 (Chemical Carcinogenesis Research Information System (CCRIS), 2018)
Calls of active or inactive are those of the source. How the calls were made is not given here.

Tested on: CCRIS mutagenicity, Ames/micronucleus/aberration tests
Assay: CCRIS mutagenicity studies
[1] = Test System: AMES SALMONELLA TYPHIMURIUM, Strain/Indicator: TA100, Metabolic Activation: NONE, Method: STANDARD PLATE

C=CCCl
mutagenic call (End Point: IN VITRO CHROMOSOMAL ABERRATIONS, Test System: CHL CELLS, Metabolic Activation: RAT, LIVER, S-9, SODIUM PHENOBARBITAL AND 5,6-BENZOFLAVONE): active; positive (structural changes); authors report equivocal results for ploidy chang | mutagenic call (Test System: AMES SALMONELLA TYPHIMURIUM, Strain/Indicator: TA100, Metabolic Activation: NONE, Method: DESICCATOR): active; positive | mutagenic call (Test System: AMES SALMONELLA TYPHIMURIUM, Strain/Indicator: TA100, Metabolic Activation: NONE, Method: PREINCUBATION (20-180 MIN)): inactive; negative | mutagenic call (Test System: AMES SALMONELLA TYPHIMURIUM, Strain/Indicator: TA100, Metabolic Activation: RAT, LIVER, S-9, AROCLOR 1254 (4 OR 12 MG/ML PROTEIN), Method: PREINCUBATION (20 OR 60 MIN)): inactive; negative | mutagenic call (Test System: AMES SALMONELLA TYPHIMURIUM, Strain/Indicator: TA100, Metabolic Activation: RAT, LIVER, S-9, AROCLOR 1254 (4 OR 12 MG/ML PROTEIN), Method: PREINCUBATION (120 OR 180 MIN)): active; positive | mutagenic call (Test System: AMES SALMONELLA TYPHIMURIUM, Strain/Indicator: TA100, Metabolic Activation: RAT, LIVER, S-9, AROCLOR 1254, SERUM ALBUMIN (4 MG/ML) (8 MG/ML PROTEIN), Method: PREINCUBATION (120 MIN)): inactive; negative | mutagenic call (Test System: AMES SALMONELLA TYPHIMURIUM, Strain/Indicator: TA100, Metabolic Activation: RAT, LIVER, S-9, AROCLOR 1254, Method: DESICCATOR): active; positive | mutagenic call (Test System: AMES SALMONELLA TYPHIMURIUM, Strain/Indicator: TA102, Metabolic Activation: S-9, Method: STANDARD PLATE): inactive; negative | mutagenic call (Test System: AMES SALMONELLA TYPHIMURIUM, Strain/Indicator: TA1535, Metabolic Activation: NONE, Method: DESICCATOR): active; positive | mutagenic call (Test System: AMES SALMONELLA TYPHIMURIUM, Strain/Indicator: TA1535, Metabolic Activation: NONE, Method: PREINCUBATION): active; positive | mutagenic call (Test System: AMES SALMONELLA TYPHIMURIUM, Strain/Indicator: TA1535, Metabolic Activation: RAT, LIVER, S-9, AROCLOR 1254, Method: DESICCATOR): active; positive | mutagenic call (Test System: AMES SALMONELLA TYPHIMURIUM, Strain/Indicator: TA1535, Metabolic Activation: RAT, LIVER, S-9, AROCLOR 1254, Method: PREINCUBATION): active; positive | mutagenic call (Test System: AMES SALMONELLA TYPHIMURIUM, Strain/Indicator: TA2638, Metabolic Activation: S-9, Method: STANDARD PLATE): inactive; negative | mutagenic call (Test System: Ames Salmonella typhimurium, Strain/Indicator: TA98, Metabolic Activation: Rat, Liver, S9, Sodium phenobarbital and 5,6-benzoflavone (10%), Method: Preincubation): inactive; negative | mutagenic call (Test System: Ames Salmonella typhimurium, Strain/Indicator: TA100, Metabolic Activation: Rat, Liver, S9, Sodium phenobarbital and 5,6-benzoflavone (10%), Method: Preincubation): inactive; negative | mutagenic call (Test System: Ames Salmonella typhimurium, Strain/Indicator: TA1537, Metabolic Activation: None, Method: Preincubation): inactive; negative | mutagenic call (Test System: Ames Salmonella typhimurium, Strain/Indicator: TA1537, Metabolic Activation: Rat, Liver, S9, Sodium phenobarbital and 5,6-benzoflavone (10%), Method: Preincubation): inactive; negative | mutagenic call (Test System: Ames Salmonella typhimurium, Strain/Indicator: YG7108, Metabolic Activation: None, Method: Standard plate): inactive; positive (negative when allyl chloride dissolved in water) | mutagenic call (Test System: Ames Salmonella typhimurium, Strain/Indicator: YG7108, Metabolic Activation: Rat, Liver, S-9, Phenobarbital/beta-naphthoflavone, Method: Standard plate): active; positive | mutagenic call (Test System: Ames Salmonella typhimurium, Strain/Indicator: YG7108pin3ERb5, Metabolic Activation: None, Method: Standard plate): active; positive | mutagenic call (Test System: E. COLI, Strain/Indicator: WP2 (PKM101), Metabolic Activation: S-9, Method: STANDARD PLATE): inactive; negative | mutagenic call (Test System: E. COLI, Strain/Indicator: WP2 UVRA (PKM101), Metabolic Activation: S-9, Method: STANDARD PLATE): inactive; negative

O=C(O)c1nn(Cc2ccc(Cl)cc2Cl)c2ccccc12
mutagenic call (Test System: AMES SALMONELLA TYPHIMURIUM, Strain/Indicator: TA98, Metabolic Activation: NONE, Method: STANDARD PLATE): inactive; negative | mutagenic call (Test System: AMES SALMONELLA TYPHIMURIUM, Strain/Indicator: TA98, Metabolic Activation: RAT, LIVER, S-9, AROCLOR 1254, Method: STANDARD PLATE): inactive; negative | mutagenic call [1]: inactive; negative | mutagenic call (Test System: AMES SALMONELLA TYPHIMURIUM, Strain/Indicator: TA100, Metabolic Activation: RAT, LIVER, S-9, AROCLOR 1254, Method: STANDARD PLATE): inactive; negative | mutagenic call (Test System: AMES SALMONELLA TYPHIMURIUM, Strain/Indicator: TA1535, Metabolic Activation: NONE, Method: STANDARD PLATE): inactive; negative | mutagenic call (Test System: AMES SALMONELLA TYPHIMURIUM, Strain/Indicator: TA1535, Metabolic Activation: RAT, LIVER, S-9, AROCLOR 1254, Method: STANDARD PLATE): inactive; negative | mutagenic call (Test System: AMES SALMONELLA TYPHIMURIUM, Strain/Indicator: TA1537, Metabolic Activation: NONE, Method: STANDARD PLATE): inactive; negative | mutagenic call (Test System: AMES SALMONELLA TYPHIMURIUM, Strain/Indicator: TA1537, Metabolic Activation: RAT, LIVER, S-9, AROCLOR 1254, Method: STANDARD PLATE): inactive; negative | mutagenic call (Test System: AMES SALMONELLA TYPHIMURIUM, Strain/Indicator: TA1538, Metabolic Activation: NONE, Method: STANDARD PLATE): inactive; negative | mutagenic call (Test System: AMES SALMONELLA TYPHIMURIUM, Strain/Indicator: TA1538, Metabolic Activation: RAT, LIVER, S-9, AROCLOR 1254, Method: STANDARD PLATE): inactive; negative | mutagenic call (Test System: CHINESE HAMSTER OVARY, Strain/Indicator: CHO-K1-BH4 (HPRT), Metabolic Activation: NONE): inactive; negative | mutagenic call (Test System: CHINESE HAMSTER OVARY, Strain/Indicator: CHO-K1-BH4 (HPRT), Metabolic Activation: RAT, LIVER, S-9, AROCLOR 1254): inactive; negative

O=[N+]([O-])c1ccc(OC[C@@H]2CO2)cc1
mutagenic call [1]: active; positive
